We go through two compounds from patent publication US20240115881A1, “METHODS AND SYSTEMS FOR DETERMINING THE DISTRIBUTION OF RADIATION DOSE AND RESPONSE” (priority 2022, published 2024).

In the series the test system is V79 cells. Kind of series: cellular uptake by flow cytometry (fluorescence intensity per cell, MFI). It is filed as cell-based, Chinese hamster. Particulars: linear least squares fit; for slope of net MFI versus extracellular drug concentration, low concentrations: Cdauno<0.6 μmol/L, Cdoxo<1 μmol/L; for slope of net MFI versus extracellular drug concentration, high concentrations: Cdauno>0.6 μmol/L (+1161), Cdoxo>1 μmol/L (+29). Here is the method:
Briefly, flow cytometry was used to quantify their mean fluorescence intensity (MFI) per cell, <I>, as a function of the concentration of the agent in the cell culture medium. The net mean fluorescence intensities per cell, <I>net, were determined by subtracting control autofluorescence <I>control, according to the following equation: […]
^210Po-Citrate. The uptake of ^210Po-citrate was determined on a cell-by-cell basis by flow cytometric techniques, using ^210Po-free citrate. Briefly, V79 cells (2×10^6 cells/mL) were treated with 0-3 mmol/L of citrate and incubated on a rocker-roller as described earlier. Cellular uptake of citrate was tracked using an europium tetracycline (EuTc) conjugate. Samples were washed 2× with 10 mmol/L MOPS buffer (Sigma, St. Louis, catalog no. M3183), after a 30 min exposure to citrate. The cells were resuspended in 1 mL of MOPS buffer containing EuTc (Sigma, catalog nos. 203254 for Eu and T7660 for Tc), transferred into 7 ml polystyrene flow cytometry tubes (BD, catalog no. 352054), and were incubated at room temperature (˜22° C.) in the dark for 30 min. The final concentration of EuTc was 100 μmol/L. EuTc forms a ternary complex with citrate (EuTc-citrate) which is excitable at 488 nm, and its emission can be captured within the wavelengths transmitted by the 610/20 filter. After washing 2× with MOPS buffer, the samples were resuspended in 1 mL of MOPS buffer, passed 5× through a 21-gauge needle, and were analyzed by flow cytometry using an LSR II flow cytometer (BD), equipped with a 488 nm laser. Cellular incorporation of citrate, expressed in terms of the fluorescence intensity per cell or mean fluorescence intensity (MFI) of EuTc-citrate, was used as a surrogate measure cellular uptake of ^210Po-citrate.
To determine the cellular uptake of daunomycin and doxorubicin, the cells were treated with 0-10 μmol/L of each drug in MEMB and incubated on a rocker-roller for 2.5 h. The cells were washed 2× with phosphate buffered saline (PBS), resuspended in 1 mL of PBS, passed 5× through a needle, and were immediately subjected to flow cytometric analysis. The 488 nm laser was used to excite intracellular daunomycin and doxorubicin, and the emission spectra were captured within the wavelengths transmitted by the 575/26 and 530/30 filters, respectively. Cellular incorporation of drugs was also expressed as MFI.
For orientation: Flow cytometry measures light scatter and fluorescence of single cells or particles in a stream.

`COc1cccc2c1C(=O)c1c(O)c3c(c(O)c1C2=O)C[C@@](O)(C(=O)CO)C[C@@H]3O[C@H]1C[C@H](N)[C@H](O)[C@H](C)O1` [doxorubicin]: the “slope of net MFI versus extracellular drug concentration, low concentrations” value was 61 (μmol/L)^−1 and the “slope of net MFI versus extracellular drug concentration, high concentrations” value was 40 (μmol/L)^−1.

Consider `COc1cccc2c1C(=O)c1c(O)c3c(c(O)c1C2=O)C[C@@](O)(C(C)=O)C[C@@H]3O[C@H]1C[C@H](N)[C@H](O)[C@H](C)O1` [daunomycin], for which the “slope of net MFI versus extracellular drug concentration, low concentrations” value is 5922 (μmol/L)^−1 and the “slope of net MFI versus extracellular drug concentration, high concentrations” value is 2480 (μmol/L)^−1.
